Laboratory results reported in patent publication US20230391752A1, “PYRROLIDINE-3-CARBOXAMIDE DERIVATIVES AND RELATED USES” (Chulalongkorn University, priority 2020, published 2023).

How the values were obtained:
[1] = Cytotoxicity (MTT) in HepG2.2.15 cells; type: cell-based; settings: human, 6 days treatment, read-out: HepG2.1.15 cytotoxicity (CC50)
Description: HepG2.2.15 cells were seeded onto 96-well culture plate and allowed to adhere for 24 hours. The cells were treated with various concentrations of the compounds for 6 days. After treatment, the culture media were discarded and further incubated with serum-free media containing […] of 3-(4,5-dimethylthiazol-2-yl)-2,5-diphenyl tetrazolium bromide (MTT) for 2 hour. The resulting formazan crystals were completely dissolved in dimethyl sulfoxide (DMSO), and then measured absorbance at 570 nm using microplate reader. The concentrations of compounds producing 50% cell death (CC50) were determined from a fitting of concentration-response curve (% cell viability versus concentration) to a four-parameter equation.

[2] = target: T1, HBV core protein (Cp149) (Hepatitis B virus genotype D subtype ayw, UniProt P03146); test: HBV capsid assembly by size exclusion chromatography (SEC); type: biochemical; settings: 50 μM compound, 15 μM Cp149, 16 hours at 21° C.
T1 construct: HBV core C-terminally truncated protein (HBV Cp149); made in house
T1 sequence (P03146 1-149): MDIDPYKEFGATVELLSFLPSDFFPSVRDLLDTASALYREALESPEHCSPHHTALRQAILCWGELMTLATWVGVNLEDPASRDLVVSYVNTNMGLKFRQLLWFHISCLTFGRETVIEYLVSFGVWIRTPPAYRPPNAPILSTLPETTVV

[3] = tested on: HBV; test: In vitro anti-HBV activity in HepG2.2.15 cell line (intracellular HBV DNA by qPCR at 1 μM); type: cell-based; settings: Hepatitis B virus, 144 h; HepG2.2.15 cells, 1 μM compound, 6 days, intracellular HBV DNA as percentage compared to vehicle control (0.5% DMSO)
How it was run: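 HepG2.2.15 cells given compound at 1 μM (0.5% DMSO final) for 3 days, then fresh compound-containing medium for 3 more days. After 6 days intracellular HBV DNA measured by qPCR. Expressed as % of 0.5% DMSO vehicle control and binned into letter ranges.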

[4] = tested on: HBV; test: Effect on intrahepatic HBV DNA levels in HepG2.2.15 cells (EC50); type: cell-based; settings: Hepatitis B virus, 144 h, 6 days, intrahepatic HBV DNA by qPCR, read-out: Anti-HBV DNA (EC50)
Description: HepG2.2.15 cells were treated with compounds, at various concentrations in 10% FCS containing medium, at 37° C. for three days. After that the medium was removed and fresh medium containing the compound was added to the cells for another 3 days. After 6 days of treatment, intrahepatic HBV DNA from cell lysates were isolated. Then qPCR reaction of DNA was performed to measure total HBV DNA levels using specific primer set. The fifty-percent effective concentrations (EC50) for HBV DNA inhibition, relative to no drug controls, was determined using nonlinear fitting curve model. EC50 ranges for HBV DNA inhibition were as follows: A>0.3 μM, B=0.05-0.3 μM, C<0.05 μM (Table B).

| SMILES | CC50 at 6 days [1] | Size of induced capsids based on SEC retention times [2] | activity at 1 µM [3] | EC50 [4] |
| --- | --- | --- | --- | --- |
| Cc1cc(NC(=O)[C@H]2CCN(C(=O)c3ccc(-c4c(C)cc[nH]c4=O)[nH]3)[C@H]2C)ccc1F [Example 120, (2S,3S)—N-(4-fluoro-3-methylphenyl)-2-methyl-1-(5-(4-methyl-2-oxo-1,2-dihydropyridin-3-yl)-1H-pyrrole-2-carbonyl)pyrrolidine-3-carboxamide] | > 25 µM | induced capsids similar in size to NVR 3-778 | < 45% | 0.05 to 0.3 µM |
| Cc1cc(NC(=O)[C@H]2CCN(C(=O)c3ccc(-c4c(C)n[nH]c4C)[nH]3)C2)ccc1F [Example 101, (S)-1-(5-(3,5-dimethyl-1H-pyrazol-4-yl)-1H-pyrrole-2-carbonyl)-N-(4-fluoro-3-methylphenyl)pyrrolidine-3-carboxamide] | > 25 µM | induced capsids similar in size to NVR 3-778 | < 45% | 0.05 to 0.3 µM |
| Cc1c(-c2ccc(C(=O)N3CC[C@H](C(=O)Nc4cc(F)c(F)c(F)c4)C3)[nH]2)ccc2[nH]ncc12 [Example 128, (S)-1-(5-(4-methyl-1H-indazol-5-yl)-1H-pyrrole-2-carbonyl)-N-(3,4,5-trifluorophenyl) pyrrolidine-3-carboxamide] | 10 to 25 µM | induced capsids similar in size to NVR 3-778 | < 45% | 0.05 to 0.3 µM |
| C[C@H]1[C@@H](C(=O)Nc2ccc(F)c(F)c2)CCN1C(=O)c1ccc(-c2ccnnc2)[nH]1 [Example 110, (2S,3S)—N-(3,4-difluorophenyl)-2-methyl-1-(5-(pyridazin-4-yl)-1H-pyrrole-2-carbonyl) pyrrolidine-3-carboxamide] | > 25 µM | induced capsids similar in size to NVR 3-778 | < 45% | 0.05 to 0.3 µM |
| Cc1cc(NC(=O)[C@H]2CCN(C(=O)c3ccc(-c4c(C(F)(F)F)n[nH]c4C)[nH]3)C2)ccc1F [Example 114] | 10 to 25 µM | induced capsids similar in size to NVR 3-778 | < 45% | < 0.05 µM |
| Cc1cc2[nH]ncc2cc1-c1ccc(C(=O)N2CC[C@H](C(=O)Nc3cc(F)c(F)c(F)c3)C2)[nH]1 [Example 122, (S)-1-(5-(6-methyl-1H-indazol-5-yl)-1H-pyrrole-2-carbonyl)-N-(3,4,5-trifluorophenyl) pyrrolidine-3-carboxamide] | 10 to 25 µM | induced capsids similar in size to NVR 3-778 | < 45% | 0.05 to 0.3 µM |
| Cc1cc(NC(=O)[C@H]2CCN(C(=O)c3ccc(-c4c(C)n[nH]c4C)[nH]3)[C@H]2C)ccc1F [Example 103, (2S,3S)-1-(5-(3,5-dimethyl-1H-pyrazol-4-yl)-1H-pyrrole-2-carbonyl)-N-(4-fluoro-3-methylphenyl)-2-methylpyrrolidine-3-carboxamide] | 10 to 25 µM | induced capsids similar in size to NVR 3-778 | < 45% | < 0.05 µM |
| Cc1cc(NC(=O)[C@H]2CCN(C(=O)c3ccc(-c4ccnnc4)[nH]3)[C@H]2C)ccc1F [Example 102, (2S,3S)—N-(4-fluoro-3-methylphenyl)-2-methyl-1-(5-(pyridazin-4-yl)-1H-pyrrole-2-carbonyl) pyrrolidine-3-carboxamide] | > 25 µM | induced capsids similar in size to NVR 3-778 | < 45% | < 0.05 µM |
| Cc1ccc(C(=O)N2CC[C@H](C(=O)Nc3cc(F)c(F)c(Cl)c3)[C@@H]2C)[nH]1 [Example 20, (2S,3S)—N-(3-chloro-4,5-difluorophenyl)-2-methyl-1-(5-methyl-1H-pyrrole-2-carbonyl) pyrrolidine-3-carboxamide] | 10 to 25 µM | induced capsids similar in size to NVR 3-778 | < 45% | > 0.3 µM |
